Columns and labels:
Rice = test: Phytotoxicity on rice (Example 1, Trials 1-2, Spain); type: in vivo; set-up: key: % leaf necrosis/discoloration vs untreated plants; conditions: applications AB
Source text: “Low Phytotoxicity” of pelargonic acid, as used herein means that the toxic effect on plants is absent or at such a level so as not to adversely impact the growth and/or yield of the plant under a given set of test conditions, e.g., at a given concentration of pelargonic acid. Phytotoxic effects may be measured in a number of different ways, for example, according to the principals set out in OEPP/EPPO Bulletin (2014) 44 (3), 265-273 “PP 1/135 (4) Phytotoxicity assessment”. The phytotoxic effect on plants may be assessed visually as a function of the percentage of discoloration to the leaves and/or the appearance of necrosis. When the pelargonic acid compositions are applied to the foliage of the rice plants in accordance with the teachings herein, will typically result in a level of phytotoxicity of less than 20%, preferably less than 15%, more preferably less than 10% necrosis of the leaves in comparison to untreated plants. Preferred uses of the invention will typically result in phytotoxicity of 7% or less, whilst the most preferred uses will typically result in phytotoxicity of 5% or less. The above values are approximate as any purely visual assessment is likely to contain a degree of subjectivity.
(§1) All applications were made with an EC formulation containing 650 g/L of pelargonic acid (e.g., 685 g/L of 95% purity pelargonic acid), an anionic emulsifier and a branched fatty acid ester solvent.
(§2) Application A was made to the crops at the beginning of infestations; for these trials, Stage BBCH 59; Application B was made 14 days after Application A.
(§3) Trial 1 was conducted in Spain using a water volume of 300 L/ha of water per application unless otherwise indicated. Pest Incidence/Number of Insects (PESINC) and Pest Severity (PESSEV) as a Percent of Untreated Check (% UNCK) as well as Phytotoxicity were assessed at various treatment evaluation intervals.
(§4) Trial 2 was conducted in Spain using a water volume of 300 L/ha of water per application unless otherwise indicated. Pest Incidence/Number of Insects (PESINC) and Pest Severity (PESSEV) as a Percent of Untreated Check (% UNCK) as well as Phytotoxicity were assessed at various treatment evaluation intervals.

Chilo suppressalis = test: Rice field trials, control of Chilo suppressalis (Example 1, Trials 1-2, Spain); type: in vivo; conditions: applications AB
Protocol: as §1
Trials 1˜4 assessing the use of pelargonic acid for controlling Chilo suppressalis in rice were conducted in Spain and Thailand.
as §2, §3, §4

[1] = Trial 1, 14 DAB, water volume 150 L/ha
[2] = Trial 1, 14 DAB, water volume 300 L/ha, rate in treatment name
[3] = Trial 1, 27 DAB, water volume 150 L/ha
[4] = Trial 1, 27 DAB, water volume 300 L/ha, rate in treatment name, listed as PA 585 g/ha
[5] = Trial 1, 27 DAB, water volume 300 L/ha, rate in treatment name, listed as PA 975 g/ha
[6] = Trial 1, 27 DAB, water volume 300 L/ha, rate in treatment name, listed as PA 1300 g/ha
[7] = Trial 1, 27 DAB, water volume 300 L/ha, rate in treatment name, listed as PA 2600 g/ha
[8] = Trial 1, 40 DAB, water volume 150 L/ha
[9] = Trial 1, 40 DAB, water volume 300 L/ha, rate in treatment name, listed as PA 585 g/ha
[10] = Trial 1, 40 DAB, water volume 300 L/ha, rate in treatment name, listed as PA 975 g/ha
[11] = Trial 1, 40 DAB, water volume 300 L/ha, rate in treatment name, listed as PA 1300 g/ha
[12] = Trial 1, 40 DAB, water volume 300 L/ha, rate in treatment name, listed as PA 2600 g/ha

CCCCCCCCC(=O)O [PA 650 g/ha, pelargonic acid]
Phytotoxicity (Rice; Trial 2 (PESINC table), water volume 150 L/ha): 0
Phytotoxicity (Rice; Trial 2 (PESINC table), water volume 300 L/ha): 0
Phytotoxicity (Rice; Trial 2 (PESSEV table), water volume 150 L/ha): 0
Phytotoxicity (Rice; Trial 2 (PESSEV table), water volume 300 L/ha): 0
PESINC (Pest Incidence/Number of Insects) % UNCK (% efficacy) (Chilo suppressalis; [1]): 75 % UNCK
PESSEV (Pest Severity) % UNCK (Chilo suppressalis; [1]): 75 % UNCK
PESINC (Pest Incidence/Number of Insects) % UNCK (% efficacy) (Chilo suppressalis; [2]): 75 % UNCK
PESSEV (Pest Severity) % UNCK (Chilo suppressalis; [2]): 75 % UNCK
PESINC (Pest Incidence/Number of Insects) % UNCK (% efficacy) (Chilo suppressalis; [3]): 42.08 % UNCK
PESSEV (Pest Severity) % UNCK (Chilo suppressalis; [3]): 42.08 % UNCK
PESINC (Pest Incidence/Number of Insects) % UNCK (% efficacy) (Chilo suppressalis; [4]): 30.83 % UNCK
PESSEV (Pest Severity) % UNCK (Chilo suppressalis; [4]): 30.83 % UNCK
PESINC (Pest Incidence/Number of Insects) % UNCK (% efficacy) (Chilo suppressalis; [5]): 42.08 % UNCK
PESSEV (Pest Severity) % UNCK (Chilo suppressalis; [5]): 42.08 % UNCK
PESINC (Pest Incidence/Number of Insects) % UNCK (% efficacy) (Chilo suppressalis; [6]): 46.25 % UNCK
PESSEV (Pest Severity) % UNCK (Chilo suppressalis; [6]): 50 % UNCK
PESINC (Pest Incidence/Number of Insects) % UNCK (% efficacy) (Chilo suppressalis; [7]): 59.58 % UNCK
PESSEV (Pest Severity) % UNCK (Chilo suppressalis; [7]): 59.58 % UNCK
PESINC (Pest Incidence/Number of Insects) % UNCK (% efficacy) (Chilo suppressalis; [8]): 43.75 % UNCK
PESSEV (Pest Severity) % UNCK (Chilo suppressalis; [8]): 43.75 % UNCK
PESINC (Pest Incidence/Number of Insects) % UNCK (% efficacy) (Chilo suppressalis; [9]): 27.71 % UNCK
PESSEV (Pest Severity) % UNCK (Chilo suppressalis; [9]): 29.21 % UNCK
PESINC (Pest Incidence/Number of Insects) % UNCK (% efficacy) (Chilo suppressalis; [10]): 46.88 % UNCK
PESSEV (Pest Severity) % UNCK (Chilo suppressalis; [10]): 46.88 % UNCK
PESINC (Pest Incidence/Number of Insects) % UNCK (% efficacy) (Chilo suppressalis; [11]): 47.5 % UNCK
PESSEV (Pest Severity) % UNCK (Chilo suppressalis; [11]): 47.5 % UNCK
PESINC (Pest Incidence/Number of Insects) % UNCK (% efficacy) (Chilo suppressalis; [12]): 63.13 % UNCK
PESSEV (Pest Severity) % UNCK (Chilo suppressalis; [12]): 63.13 % UNCK
PESSEV (Pest Severity) % UNCK (Chilo suppressalis; Trial 2, 14 DAB, water volume 150 L/ha): 100 % UNCK
PESSEV (Pest Severity) % UNCK (Chilo suppressalis; Trial 2, 14 DAB, water volume 300 L/ha, rate in treatment name): 100 % UNCK
PESINC (Pest Incidence/Number of Insects) % UNCK (Chilo suppressalis; Trial 2, 15 DAB, water volume 150 L/ha): 100 % UNCK
PESINC (Pest Incidence/Number of Insects) % UNCK (Chilo suppressalis; Trial 2, 15 DAB, water volume 300 L/ha, rate in treatment name): 100 % UNCK
PESSEV (Pest Severity) % UNCK (Chilo suppressalis; Trial 2, 27 DAB, water volume 150 L/ha): 45.31 % UNCK
PESSEV (Pest Severity) % UNCK (Chilo suppressalis; Trial 2, 27 DAB, water volume 300 L/ha, rate in treatment name, listed as PA 585 g/ha): 55.21 % UNCK
PESSEV (Pest Severity) % UNCK (Chilo suppressalis; Trial 2, 27 DAB, water volume 300 L/ha, rate in treatment name, listed as PA 975 g/ha): 57.29 % UNCK
PESSEV (Pest Severity) % UNCK (Chilo suppressalis; Trial 2, 27 DAB, water volume 300 L/ha, rate in treatment name, listed as PA 1300 g/ha): 69.27 % UNCK
PESSEV (Pest Severity) % UNCK (Chilo suppressalis; Trial 2, 27 DAB, water volume 300 L/ha, rate in treatment name, listed as PA 2600 g/ha): 77.6 % UNCK
PESINC (Pest Incidence/Number of Insects) % UNCK (Chilo suppressalis; Trial 2, 28 DAB, water volume 150 L/ha): 40 % UNCK
PESINC (Pest Incidence/Number of Insects) % UNCK (Chilo suppressalis; Trial 2, 28 DAB, water volume 300 L/ha, rate in treatment name, listed as PA 585 g/ha): 45 % UNCK
PESINC (Pest Incidence/Number of Insects) % UNCK (Chilo suppressalis; Trial 2, 28 DAB, water volume 300 L/ha, rate in treatment name, listed as PA 975 g/ha): 45 % UNCK
PESINC (Pest Incidence/Number of Insects) % UNCK (Chilo suppressalis; Trial 2, 28 DAB, water volume 300 L/ha, rate in treatment name, listed as PA 1300 g/ha): 57.5 % UNCK
PESINC (Pest Incidence/Number of Insects) % UNCK (Chilo suppressalis; Trial 2, 28 DAB, water volume 300 L/ha, rate in treatment name, listed as PA 2600 g/ha): 74.17 % UNCK
PESSEV (Pest Severity) % UNCK (Chilo suppressalis; Trial 2, 40 DAB, water volume 150 L/ha): 57.29 % UNCK
PESSEV (Pest Severity) % UNCK (Chilo suppressalis; Trial 2, 40 DAB, water volume 300 L/ha, rate in treatment name, listed as PA 585 g/ha): 62.5 % UNCK
PESSEV (Pest Severity) % UNCK (Chilo suppressalis; Trial 2, 40 DAB, water volume 300 L/ha, rate in treatment name, listed as PA 975 g/ha): 68.75 % UNCK
PESSEV (Pest Severity) % UNCK (Chilo suppressalis; Trial 2, 40 DAB, water volume 300 L/ha, rate in treatment name, listed as PA 1300 g/ha): 68.75 % UNCK
PESSEV (Pest Severity) % UNCK (Chilo suppressalis; Trial 2, 40 DAB, water volume 300 L/ha, rate in treatment name, listed as PA 2600 g/ha): 79.38 % UNCK
PESINC (Pest Incidence/Number of Insects) % UNCK (Chilo suppressalis; Trial 2, 41 DAB, water volume 150 L/ha): 39.29 % UNCK
PESINC (Pest Incidence/Number of Insects) % UNCK (Chilo suppressalis; Trial 2, 41 DAB, water volume 300 L/ha, rate in treatment name, listed as PA 585 g/ha): 52.86 % UNCK
PESINC (Pest Incidence/Number of Insects) % UNCK (Chilo suppressalis; Trial 2, 41 DAB, water volume 300 L/ha, rate in treatment name, listed as PA 975 g/ha): 52.86 % UNCK
PESINC (Pest Incidence/Number of Insects) % UNCK (Chilo suppressalis; Trial 2, 41 DAB, water volume 300 L/ha, rate in treatment name, listed as PA 1300 g/ha): 57.86 % UNCK
PESINC (Pest Incidence/Number of Insects) % UNCK (Chilo suppressalis; Trial 2, 41 DAB, water volume 300 L/ha, rate in treatment name, listed as PA 2600 g/ha): 67.86 % UNCK
